This passage reports IC50 results from ChEMBL document CHEMBL4334516, “Kinase Chemodiversity from the Arctic: The Breitfussins” (J Med Chem, 2019).

Assay [1] has as its target Dual specificity tyrosine-phosphorylation-regulated kinase 1A (Homo sapiens, UniProt Q13627). The experiment in a line: Inhibition of DYRK1A (unknown origin) by [33P]-ATP filter binding kinase assay.
Another assay concerns MRC5. The experiment in a line: Cytotoxicity in human MRC5 cells assessed as reduction in cell viability incubated for 72 hrs by MTS assay. The following applies: MRC5, 72 h. In kind it is cell-based. For orientation: Tetrazolium dyes change colour on reduction, which living cells bring about.
Assay [2] addresses T1, Mitogen-activated protein kinase 15 (Homo sapiens, UniProt Q8TD08).
T1 sequence (Q8TD08 whole entry): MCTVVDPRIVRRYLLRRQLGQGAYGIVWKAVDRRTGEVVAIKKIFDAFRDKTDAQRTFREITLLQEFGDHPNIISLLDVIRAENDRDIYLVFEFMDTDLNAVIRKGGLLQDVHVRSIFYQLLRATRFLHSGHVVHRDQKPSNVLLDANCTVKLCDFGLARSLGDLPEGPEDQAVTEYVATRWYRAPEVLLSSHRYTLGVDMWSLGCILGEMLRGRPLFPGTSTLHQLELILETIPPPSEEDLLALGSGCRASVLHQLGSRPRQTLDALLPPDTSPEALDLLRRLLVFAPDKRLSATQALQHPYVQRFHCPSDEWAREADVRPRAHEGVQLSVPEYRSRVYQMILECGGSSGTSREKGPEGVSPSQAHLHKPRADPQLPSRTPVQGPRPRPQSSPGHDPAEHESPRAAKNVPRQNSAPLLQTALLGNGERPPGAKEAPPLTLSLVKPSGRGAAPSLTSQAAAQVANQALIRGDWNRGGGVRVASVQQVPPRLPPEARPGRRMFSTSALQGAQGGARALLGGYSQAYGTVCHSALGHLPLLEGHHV
The experiment in a line: Inhibition of ERK8 (unknown origin) by [33P]-ATP filter binding kinase assay.

The subject of a further assay is MOLT-4. The experiment in a line: Cytotoxicity in human MOLT4 cells assessed as reduction in cell viability incubated for 72 hrs by MTS assay. It counts as functional, cell-based. The settings on record: MOLT-4, 72 h.
Assay [3] addresses T2, Serine/threonine-protein kinase 17A (Homo sapiens, UniProt Q9UEE5).
T2 sequence (Q9UEE5 whole entry): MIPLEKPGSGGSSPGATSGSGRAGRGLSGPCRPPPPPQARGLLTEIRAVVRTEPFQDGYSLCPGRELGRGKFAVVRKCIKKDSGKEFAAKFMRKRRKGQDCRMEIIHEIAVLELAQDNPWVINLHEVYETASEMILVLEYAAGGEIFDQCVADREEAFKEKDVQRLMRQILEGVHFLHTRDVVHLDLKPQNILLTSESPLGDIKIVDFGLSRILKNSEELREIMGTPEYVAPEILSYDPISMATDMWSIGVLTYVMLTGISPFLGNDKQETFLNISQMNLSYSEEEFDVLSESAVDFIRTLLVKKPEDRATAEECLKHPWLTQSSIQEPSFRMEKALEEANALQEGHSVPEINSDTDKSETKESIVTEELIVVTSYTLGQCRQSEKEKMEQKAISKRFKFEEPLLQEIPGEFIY
The experiment in a line: Inhibition of Alexa Fluor 647-labeled ATP competitive kinase tracer binding to GST-tagged DRAK1 (unknown origin) by FRET based cell free ATP-competitive tracer displacement assay.

A further assay addresses T3, Aurora kinase A (Homo sapiens, UniProt O14965).
T3 sequence (O14965 whole entry): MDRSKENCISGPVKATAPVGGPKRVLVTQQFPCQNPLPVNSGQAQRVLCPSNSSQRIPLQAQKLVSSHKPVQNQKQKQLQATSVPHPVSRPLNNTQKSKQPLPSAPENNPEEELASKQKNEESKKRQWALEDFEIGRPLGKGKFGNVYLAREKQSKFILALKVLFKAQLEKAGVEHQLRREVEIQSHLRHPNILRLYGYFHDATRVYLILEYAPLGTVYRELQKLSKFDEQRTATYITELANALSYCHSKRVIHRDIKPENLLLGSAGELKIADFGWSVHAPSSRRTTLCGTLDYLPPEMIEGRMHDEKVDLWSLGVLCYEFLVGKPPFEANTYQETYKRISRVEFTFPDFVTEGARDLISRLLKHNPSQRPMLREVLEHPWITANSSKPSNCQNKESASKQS
The experiment in a line: Inhibition of Aurora A (unknown origin) by [33P]-ATP filter binding kinase assay.

For another assay, the system named is A2058. The experiment in a line: Cytotoxicity in human A2058 cells assessed as reduction in cell viability incubated for 72 hrs by MTS assay. It counts as functional, cell-based. The settings on record: A2058, 72 h.
A further assay deals with MV4-11. The experiment in a line: Cytotoxicity in human MV4-11 cells assessed as reduction in cell viability incubated for 72 hrs by MTS assay. In kind it is functional, cell-based. The following applies: MV4-11, 72 h.
Assay [4] addresses Serine/threonine-protein kinase pim-2 (Homo sapiens, UniProt Q9P1W9). The experiment in a line: Inhibition of PIM2 (unknown origin) by [33P]-ATP filter binding kinase assay.
Assay [5] deals with T4, Mitogen-activated protein kinase kinase kinase kinase 2 (Homo sapiens, UniProt Q12851).
T4 sequence (Q12851 whole entry): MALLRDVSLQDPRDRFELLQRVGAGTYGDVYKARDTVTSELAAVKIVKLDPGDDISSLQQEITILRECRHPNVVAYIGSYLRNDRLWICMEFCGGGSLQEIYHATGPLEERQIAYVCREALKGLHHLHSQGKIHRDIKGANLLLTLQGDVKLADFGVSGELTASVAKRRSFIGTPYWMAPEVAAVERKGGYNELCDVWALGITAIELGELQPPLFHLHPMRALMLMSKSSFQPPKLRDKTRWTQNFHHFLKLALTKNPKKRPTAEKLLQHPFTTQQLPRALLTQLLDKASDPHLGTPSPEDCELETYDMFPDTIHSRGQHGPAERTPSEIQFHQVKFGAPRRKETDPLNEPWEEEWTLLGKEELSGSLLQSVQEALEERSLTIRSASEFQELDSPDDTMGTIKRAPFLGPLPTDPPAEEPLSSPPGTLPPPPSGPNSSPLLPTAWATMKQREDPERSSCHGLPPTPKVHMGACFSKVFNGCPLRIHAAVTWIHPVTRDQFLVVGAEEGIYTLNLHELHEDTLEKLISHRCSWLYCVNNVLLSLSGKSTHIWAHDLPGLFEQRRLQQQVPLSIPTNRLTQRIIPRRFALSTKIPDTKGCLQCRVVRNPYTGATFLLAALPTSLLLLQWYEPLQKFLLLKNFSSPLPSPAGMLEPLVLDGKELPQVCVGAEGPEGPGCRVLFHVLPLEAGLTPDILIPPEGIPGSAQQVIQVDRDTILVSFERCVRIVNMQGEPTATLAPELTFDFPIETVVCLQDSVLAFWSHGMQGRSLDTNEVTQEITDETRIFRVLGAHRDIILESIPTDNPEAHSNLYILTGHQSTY
The experiment in a line: Inhibition of GCK (unknown origin) by [33P]-ATP filter binding kinase assay.

The target in assay [6] is Serine/threonine-protein kinase pim-1 (Homo sapiens, UniProt P11309). The experiment in a line: Inhibition of PIM1 (unknown origin) by [33P]-ATP filter binding kinase assay.
Chain of Serine/threonine-protein kinase pim-1 (P11309 whole entry): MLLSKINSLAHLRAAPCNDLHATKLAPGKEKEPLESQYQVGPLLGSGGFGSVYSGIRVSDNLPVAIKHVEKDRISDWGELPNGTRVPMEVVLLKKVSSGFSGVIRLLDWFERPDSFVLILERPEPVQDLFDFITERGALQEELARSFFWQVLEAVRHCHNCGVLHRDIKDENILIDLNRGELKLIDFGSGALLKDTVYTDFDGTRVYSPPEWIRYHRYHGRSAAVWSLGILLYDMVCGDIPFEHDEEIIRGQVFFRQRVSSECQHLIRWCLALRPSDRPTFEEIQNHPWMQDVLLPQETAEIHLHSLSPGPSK
The target of assay [7] is Serine/threonine-protein kinase SIK3 (Homo sapiens, UniProt Q9Y2K2). The experiment in a line: Inhibition of SIK3 (unknown origin) by [33P]-ATP filter binding kinase assay.
Chain of Serine/threonine-protein kinase SIK3 (Q9Y2K2 whole entry): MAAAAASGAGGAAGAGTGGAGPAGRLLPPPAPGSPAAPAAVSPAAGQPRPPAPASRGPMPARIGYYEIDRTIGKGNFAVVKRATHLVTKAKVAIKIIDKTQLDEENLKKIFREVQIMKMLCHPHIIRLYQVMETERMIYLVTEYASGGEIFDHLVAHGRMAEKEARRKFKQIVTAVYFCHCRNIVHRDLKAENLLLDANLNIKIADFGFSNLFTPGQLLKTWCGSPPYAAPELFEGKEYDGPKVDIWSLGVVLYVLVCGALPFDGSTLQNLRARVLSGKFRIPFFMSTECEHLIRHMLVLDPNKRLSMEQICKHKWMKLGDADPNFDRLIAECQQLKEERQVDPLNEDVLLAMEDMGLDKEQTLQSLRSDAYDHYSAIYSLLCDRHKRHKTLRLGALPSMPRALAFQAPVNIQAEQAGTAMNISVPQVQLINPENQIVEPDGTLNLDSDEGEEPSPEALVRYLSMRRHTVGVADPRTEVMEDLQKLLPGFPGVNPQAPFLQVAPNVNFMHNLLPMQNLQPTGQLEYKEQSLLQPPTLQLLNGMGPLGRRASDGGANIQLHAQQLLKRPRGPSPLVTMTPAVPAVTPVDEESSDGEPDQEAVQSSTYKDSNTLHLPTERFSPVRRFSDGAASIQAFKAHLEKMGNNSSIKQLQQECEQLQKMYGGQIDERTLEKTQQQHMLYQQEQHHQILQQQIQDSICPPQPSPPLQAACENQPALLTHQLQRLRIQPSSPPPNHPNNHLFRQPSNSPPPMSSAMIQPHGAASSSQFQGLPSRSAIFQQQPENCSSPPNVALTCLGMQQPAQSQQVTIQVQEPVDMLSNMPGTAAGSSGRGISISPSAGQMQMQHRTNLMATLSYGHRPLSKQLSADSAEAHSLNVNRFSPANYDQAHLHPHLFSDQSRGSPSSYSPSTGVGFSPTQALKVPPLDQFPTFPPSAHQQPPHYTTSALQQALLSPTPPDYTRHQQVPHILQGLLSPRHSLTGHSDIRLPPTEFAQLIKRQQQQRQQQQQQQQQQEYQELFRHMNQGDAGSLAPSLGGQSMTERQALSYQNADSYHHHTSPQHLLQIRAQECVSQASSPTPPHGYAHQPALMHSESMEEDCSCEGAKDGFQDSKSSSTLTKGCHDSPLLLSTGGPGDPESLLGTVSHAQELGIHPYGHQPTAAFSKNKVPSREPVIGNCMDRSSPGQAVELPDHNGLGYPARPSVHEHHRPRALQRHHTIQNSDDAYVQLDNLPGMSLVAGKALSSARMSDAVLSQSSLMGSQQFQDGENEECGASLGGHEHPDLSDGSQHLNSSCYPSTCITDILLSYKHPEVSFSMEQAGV
The target of assay [8] is Receptor-interacting serine/threonine-protein kinase 2 (Homo sapiens, UniProt O43353). The experiment in a line: Inhibition of RIPK2 (unknown origin) by [33P]-ATP filter binding kinase assay.
Chain of Receptor-interacting serine/threonine-protein kinase 2 (O43353 whole entry): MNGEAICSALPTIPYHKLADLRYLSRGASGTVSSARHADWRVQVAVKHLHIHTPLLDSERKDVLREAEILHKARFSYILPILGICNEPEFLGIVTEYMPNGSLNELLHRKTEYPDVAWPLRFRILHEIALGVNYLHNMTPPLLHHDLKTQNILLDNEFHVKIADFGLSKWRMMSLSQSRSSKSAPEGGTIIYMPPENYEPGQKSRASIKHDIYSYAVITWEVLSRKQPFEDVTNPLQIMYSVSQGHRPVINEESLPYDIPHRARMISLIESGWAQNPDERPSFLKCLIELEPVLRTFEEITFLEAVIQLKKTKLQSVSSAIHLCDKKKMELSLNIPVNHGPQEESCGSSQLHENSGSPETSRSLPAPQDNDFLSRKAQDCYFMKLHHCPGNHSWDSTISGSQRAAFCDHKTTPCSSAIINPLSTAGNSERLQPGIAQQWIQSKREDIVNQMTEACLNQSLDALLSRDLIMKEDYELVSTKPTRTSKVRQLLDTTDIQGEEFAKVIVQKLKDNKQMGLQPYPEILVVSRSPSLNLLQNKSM

Chain of Serine/threonine-protein kinase pim-2 (Q9P1W9 whole entry): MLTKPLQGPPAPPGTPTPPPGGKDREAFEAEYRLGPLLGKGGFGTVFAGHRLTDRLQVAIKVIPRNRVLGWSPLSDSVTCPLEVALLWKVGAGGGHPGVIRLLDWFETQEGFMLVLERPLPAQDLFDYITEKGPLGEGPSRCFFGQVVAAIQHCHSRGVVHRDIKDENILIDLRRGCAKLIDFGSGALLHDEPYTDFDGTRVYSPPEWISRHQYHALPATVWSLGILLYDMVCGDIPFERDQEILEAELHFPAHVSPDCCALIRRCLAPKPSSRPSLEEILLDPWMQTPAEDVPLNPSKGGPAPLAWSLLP

For orientation: IC50 means the concentration needed to halve the response being measured. As to `COc1cc(Br)cc2[nH]cc(-c3cnc(-c4ccc[nH]4)o3)c12`, the IC50 was over 10 µM in assay [1]; over 10 µM in the assay on MRC5; 46 µM in assay [2]; over 10 µM with MOLT-4; 9.6 µM in [3]; over 10 µM at Aurora kinase A. Besides, the IC50 in the assay on A2058 was over 10 µM; in the assay on MV4-11, over 10 µM; in assay [4] it was 22 µM; in [5], 1.2 µM; in assay [6], 0.9 µM; in [7], over 10 µM. Also, in [8], the IC50 was over 10 µM.

As to `COc1cc(Br)cc2[nH]cc(-c3oc(-c4ccc[nH]4)nc3I)c12`, the IC50 (in [1]; in the assay on MRC5; in assay [2]; in the assay with MOLT-4; in [3]; at Aurora kinase A) was over 10 µM throughout. Moreover, the IC50 (with A2058; in the assay with MV4-11; in assay [4]; in assay [5]; in assay [6]; in assay [7]) was over 10 µM in each case. Further, in assay [8], the IC50 was over 10 µM.

Regarding `COc1cc(Br)cc2[nH]cc(-c3cnc(-c4ccc(Br)[nH]4)o3)c12`, the IC50 (in assay [1]; in the assay with MRC5; in [2]; with MOLT-4; in assay [3]; on Aurora kinase A) was over 10 µM each time. Moreover, the IC50 (in the assay with A2058; in the assay with MV4-11; in [4]; in assay [5]; in assay [6]; in [7]) was over 10 µM each time. This compound also registered a half-maximal inhibitory concentration (IC50) in assay [8] of over 10 µM.

Take `COc1cc2c(-c3cnc(-c4ccc[nH]4)o3)c[nH]c2cc1Br`: the IC50 is 7.1 µM in the assay with MRC5; 1 µM in assay [2]; 9.9 µM with MOLT-4; 22 µM on Aurora kinase A; over 10 µM in the assay with A2058; 4.4 µM in the assay with MV4-11. The IC50 came out at 11 µM in [4]; 0.6 µM in [5]; 0.2 µM in assay [6]; 1.2 µM in assay [7]; 1.1 µM in assay [8].
